# According to patent publication US20170096708A1, “DIAGNOSTIC METHOD” (Convergence Pharmaceuticals Limited, priority 2014, published 2017):
# Counter-ions that a name gives are not always drawn.
# Test system: trigeminal neuralgia (TGN) patients
# Assay: 7 week randomized withdrawal trial with trigeminal neuralgia (TGN) patients
# Assay type: in vivo, human
# Description: CNV1014802 is a novel Nav1.7 selective state-dependent sodium channel blocker that is being assessed in the treatment of trigeminal neuralgia. The trial used a randomized withdrawal design to assess efficacy in this rare condition and comprised a 21-day open-label phase followed by a randomized 28-day placebo-controlled phase for responders as described in Zakrzewska et al., (2013) Trials 14:402). Patients participated in an initial open-label treatment period of 21 days of CNV1014802 using 150 mg three times daily. Responders were then randomized to 28 days of CNV1014802 150 mg three times daily or placebo. A responder at the end of the open-label period was defined as a patient with one of the following: • 1) a 30% or more decrease in the total number of paroxysms over the last 7 days of the open-label phase as compared to the total number recorded in the 7-day baseline phase (day-7 to -1 prior to start of study medication, Run in); and/or • 2) a 30% reduction in the mean severity of pain experienced during the paroxysm over the last 7 days of the open-label phase as compared to the total number recorded in the 7-day baseline phase (day-7 to -1 prior to start of study medication, run in); and/or • 3) a Patient Global Improvement of Change rating of much improved/very much improved. Responders were randomized to CNV1014802 or placebo, in a 1:1 ratio. During the double-blind randomized phase, patients were evaluated at each clinic visit, which occurred every 7 days to determine whether they met the failure criteria in the double-blind treatment period. […]
smiles,measurement,setting,value
"NC(=O)[C@@H]1CC[C@H](c2ccc(OCc3ccccc3F)cc2)N1 [CNV1014802, (5R)-5-(4-{[(2-fluorophenyl)methyl]oxy}phenyl)-L-prolinamide hydrochloride salt]",reduction in pain severity,"150 mg three times daily, final week of double-blind (week 7) vs 7 day run-in, LOCF, compared to placebo group, p=0.04, FIG. 1",superior
same,reduction in the number of paroxysms,"150 mg three times daily, final week of double-blind (week 7) vs 7 day run-in, LOCF, compared to placebo group, p=0.08, FIG. 1",superior
same,response to treatment in patients with genetic variations within the CACNA1A gene and/or the CACNA1B gene,"all patients with genetic variations, responder criteria of the 21-day open-label phase",responded to treatment
